From patent US11407768B2, “AMPK activators” (Kallyope, Inc., priority 2020, dated 2022) come the findings set out here.

Sequence of Recombinant AMPK α1/β1/γ1 complex (Q13131 whole entry): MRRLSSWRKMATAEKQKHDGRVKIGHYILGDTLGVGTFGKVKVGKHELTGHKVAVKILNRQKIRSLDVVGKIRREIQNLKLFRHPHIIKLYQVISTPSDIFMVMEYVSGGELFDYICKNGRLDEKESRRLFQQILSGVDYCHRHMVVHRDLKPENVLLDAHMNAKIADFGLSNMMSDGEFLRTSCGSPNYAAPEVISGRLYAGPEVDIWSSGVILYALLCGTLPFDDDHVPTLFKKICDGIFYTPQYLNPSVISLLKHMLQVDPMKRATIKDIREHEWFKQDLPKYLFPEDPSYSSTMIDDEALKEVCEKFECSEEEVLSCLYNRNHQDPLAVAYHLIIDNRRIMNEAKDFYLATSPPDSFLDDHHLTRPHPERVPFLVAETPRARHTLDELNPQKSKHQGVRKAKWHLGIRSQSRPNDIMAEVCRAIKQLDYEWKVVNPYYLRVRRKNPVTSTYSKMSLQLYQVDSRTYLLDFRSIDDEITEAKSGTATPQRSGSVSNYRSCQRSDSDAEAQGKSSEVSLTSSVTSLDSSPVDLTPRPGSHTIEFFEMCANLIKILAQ
Sequence of Recombinant AMPK α1/β1/γ1 complex (Q9Y478 whole entry): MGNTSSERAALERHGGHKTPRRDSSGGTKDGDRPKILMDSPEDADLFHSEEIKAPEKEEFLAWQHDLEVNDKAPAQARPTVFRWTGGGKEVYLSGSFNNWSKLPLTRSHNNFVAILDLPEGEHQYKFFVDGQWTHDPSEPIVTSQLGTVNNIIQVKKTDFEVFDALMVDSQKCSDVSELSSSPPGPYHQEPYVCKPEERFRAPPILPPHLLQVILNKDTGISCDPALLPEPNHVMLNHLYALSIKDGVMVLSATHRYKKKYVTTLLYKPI
Sequence of Recombinant AMPK α1/β1/γ1 complex (P54619 whole entry partner): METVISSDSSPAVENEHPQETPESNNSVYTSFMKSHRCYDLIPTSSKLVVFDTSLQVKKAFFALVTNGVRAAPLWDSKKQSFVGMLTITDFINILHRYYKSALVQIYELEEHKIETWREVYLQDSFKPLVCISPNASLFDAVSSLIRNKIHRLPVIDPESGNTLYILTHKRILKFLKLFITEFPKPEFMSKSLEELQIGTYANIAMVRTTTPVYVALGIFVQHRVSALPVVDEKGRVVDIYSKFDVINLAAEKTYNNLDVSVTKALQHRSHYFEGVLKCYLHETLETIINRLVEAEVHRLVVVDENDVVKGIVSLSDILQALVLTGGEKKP

For the test, the target named is Recombinant AMPK α1/β1/γ1 complex (Homo sapiens (Human), UniProt Q13131+Q9Y478). Description: In vitro pAMPK1 kinase activation assay (ADP-Glo, SAMS peptide). The following applies: AMPK α1/β1/γ1 pre-activated with CAMKK2; 12-point curve; 15 min compound incubation. In kind it is biochemical. The method, then:
Compound effect on AMPK enzyme activation was determined in a cell-free format with a 12-point concentration curve. The ADP-Glo detection system was used to determine phosphorylation of a SAMS peptide substrate. Recombinant AMPK α1/β1/γ1 complex was pre-activated by phosphorylation with CAMKK2 followed by incubated with compound for 15 minutes prior to the SAMS phosphorylation reaction. Activity curves and EC50 values were fitted by interpolation to an ATP:ADP standard curve as indicated by the ADP-Glo manufacturer using Prism software.
(In general: In ADP-Glo the light output rises with the ADP produced.)
`C[N+](C)(C)CCNC(=O)c1ccc(-c2ccc(-c3cc4nc(O[C@@H]5CO[C@H]6[C@@H]5OC[C@H]6O)[nH]c4cc3Cl)cc2)cc1` [Compound 29, 2-(4′-(6-chloro-2-(((3R,3aR,6R,6aR)-6-hydroxyhexahydrofuro[3,2-b]furan-3-yl)oxy)-1H-benzo [d]imidazol-5-yl)-[1,1′-biphenyl]-4-carboxamido)-N,N,N-trimethylethan-1-aminium bicarbonate]: the 50% effective concentration (EC50) (in general, the concentration needed to bring the measured effect to its halfway point) came to 0.56 nM. With `O=C(NC[C@H](O)[C@@H](O)[C@H](O)[C@H](O)CO)c1ccc(-c2ccc(-c3cc4nc(O[C@@H]5CO[C@H]6[C@@H]5OC[C@H]6O)[nH]c4cc3Cl)cc2)cc1` [Compound 30, 4′-(6-chloro-2-(((3R,3aR,6R,6aR)-6-hydroxyhexahydrofuro[3,2-b]furan-3-yl)oxy)-1H-benzo[d]imidazol-5-yl)-N-((2S,3R,4R,5R)-2,3,4,5,6-pentahydroxyhexyl)-[1,1′-biphenyl]-4-carboxamide] the figure was 0.65 nM.

As to `OCC(CO)(CO)NCc1ccc(-c2ccc(-c3cc4nc(O[C@@H]5CO[C@H]6[C@@H]5OC[C@H]6O)[nH]c4cc3Cl)cc2)cc1` [Compound 36, 2-(((4′-(6-chloro-2-(((3R,3aR,6R,6aR)-6-hydroxyhexahydrofuro[3,2-b]furan-3-yl)oxy)-1H-benzo[d]imidazol-5-yl)-[1,1′-biphenyl]-4-yl)methyl)amino)-2-(hydroxymethyl)propane-1,3-diol], the EC50 was found to be 0.84 nM. The same measure for `O=C(CCCNCc1ccc(-c2ccc(-c3cc4nc(O[C@@H]5CO[C@H]6[C@@H]5OC[C@H]6O)[nH]c4cc3Cl)cc2)cc1)NCCO` [Compound 37, 4-(((4′-(6-chloro-2-(((3R,3aR,6R,6aR)-6-hydroxyhexahydrofuro[3,2-b]furan-3-yl)oxy)-1H-benzo[d]imidazol-5-yl)-[1,1′-biphenyl]-4-yl)methyl)amino)-N-(2-hydroxyethyl)butanamide]: 3.6 nM. With `O=C(CCCNCc1ccc(-c2ccc(-c3cc4nc(O[C@@H]5CO[C@H]6[C@@H]5OC[C@H]6O)[nH]c4cc3Cl)cc2)cc1)NC(CO)CO` [Compound 38, 4-(((4′-(6-chloro-2-(((3R,3aR,6R,6aR)-6-hydroxyhexahydrofuro[3,2-b]furan-3-yl)oxy)-1H-benzo[d]imidazol-5-yl)-[1,1′-biphenyl]-4-yl)methyl)amino)-N-(1,3-dihydroxypropan-2-yl)butanamide] the figure was 2.4 nM; with `O=P(O)(O)c1ccc(-c2ccc(-c3nc4nc(O[C@H]5CO[C@H](CO)[C@H]5O)[nH]c4cc3Cl)cc2)cc1` [Compound 45, (4′-(6-chloro-2-(((3S,4R,5R)-4-hydroxy-5-(hydroxymethyl)tetrahydrofuran-3-yl)oxy)-1H-imidazo[4,5-b]pyridin-5-yl)-[1,1′-biphenyl]-4-yl)phosphonic acid], above 10000 nM; with `CN(CCOCCO)C(=O)c1ccc(-c2ccc(-c3cc4nc(O[C@@H]5CO[C@H]6[C@@H]5OC[C@H]6O)[nH]c4cc3Cl)cc2)cc1` [Compound 48, 4′-(6-chloro-2-(((3R,3aR,6R,6aR)-6-hydroxyhexahydrofuro[3,2-b]furan-3-yl)oxy)-1H-benzo [d]imidazol-5-yl)-N-(2-(2-hydroxyethoxy)ethyl)-N-methyl-[1,1′-biphenyl]-4-carboxamide], 1.16 nM. On to `O[C@@H]1CO[C@H]2[C@@H]1OC[C@H]2Oc1nc2cc(-c3ccc(-c4ccc(CN5CCNCC5)cc4)cc3)c(Cl)cc2[nH]1` [Compound 49, (3R,3aR,6R,6aR)-6-((6-chloro-5-(4′-(piperazin-1-ylmethyl)-[1,1′-biphenyl]-4-yl)-1H-benzo[d]imidazol-2-yl)oxy)hexahydrofuro[3,2-b]furan-3-ol], for which the EC50 stood at 1.76 nM. Turning to `OCCOCC1CN(Cc2ccc(-c3ccc(-c4cc5nc(O[C@@H]6CO[C@H]7[C@@H]6OC[C@H]7O)[nH]c5cc4Cl)cc3)cc2)C1` [Compound 50], the EC50 was determined as 1.46 nM. With `OCCN1CCN(Cc2ccc(-c3ccc(-c4nc5nc(O[C@@H]6CO[C@H]7[C@@H]6OC[C@H]7O)[nH]c5cc4Cl)cc3)cc2)CC1` [Compound 51, (3R,3aR,6R,6aR)-6-((6-chloro-5-(4′-((4-(2-hydroxyethyl)piperazin-1-yl)methyl)-[1,1′-biphenyl]-4-yl)-1H-imidazo[4,5-b]pyridin-2-yl)oxy)hexahydrofuro[3,2-b]furan-3-ol] the figure was 0.72 nM; with `OCC1(CO)CN(Cc2ccc(-c3ccc(-c4nc5nc(O[C@@H]6CO[C@H]7[C@@H]6OC[C@H]7O)[nH]c5cc4Cl)cc3)cc2)C1` [Compound 52, (1-((4′-(6-chloro-2-(((3R,3aR,6R,6aR)-6-hydroxyhexahydrofuro[3,2-b]furan-3-yl)oxy)-1H-imidazo[4,5-b]pyridin-5-yl)-[1,1′-biphenyl]-4-yl)methyl)azetidine-3,3-diyl)dimethanol], 0.81 nM; with `OCC(CO)(CO)NCc1ccc(-c2ccc(-c3nc4nc(O[C@@H]5CO[C@H]6[C@@H]5OC[C@H]6O)[nH]c4cc3Cl)cc2)cc1` [Compound 53, 2-(((4′-(6-chloro-2-(((3R,3aR,6R,6aR)-6-hydroxyhexahydrofuro[3,2-b]furan-3-yl)oxy)-1H-imidazo[4,5-b]pyridin-5-yl)-[1,1′-biphenyl]-4-yl)methyl)amino)-2-(hydroxymethyl)propane-1,3-diol], 0.23 nM.

On to `OCC1(CO)CCN(Cc2ccc(-c3ccc(-c4nc5nc(O[C@@H]6CO[C@H]7[C@@H]6OC[C@H]7O)[nH]c5cc4Cl)cc3)cc2)CC1` [Compound 54, (1((4′-(6-chloro-2-(((3R,3aR,6R,6aR)-6-hydroxyhexahydrofuro[3,2-b]furan-3-yl)oxy)-1H-imidazo[4,5-b]pyridin-5-yl)-[1,1′-biphenyl]-4-yl)methyl)piperidine-4,4-diyl)dimethanol], for which the 50% effective concentration (EC50) was determined as 0.57 nM. With `O[C@@H]1CCN(Cc2ccc(-c3ccc(-c4cc5nc(O[C@@H]6CO[C@H]7[C@@H]6OC[C@H]7O)[nH]c5cc4Cl)cc3)cc2)C1` [Compound 59, (R)-1-((4′-(6-chloro-2-(((3R,3aR,6R,6aR)-6-hydroxyhexahydrofuro[3,2-b]furan-3-yl)oxy)-1H-benzo[d]imidazol-5-yl)-[1,1′-biphenyl]-4-yl)methyl)pyrrolidin-3-ol] the figure was 1.04 nM. Turning to `O[C@@H]1CO[C@H]2[C@@H]1OC[C@H]2Oc1nc2cc(-c3ccc(-c4ccc(CN5C[C@@H](O)[C@@H](O)C5)cc4)cc3)c(Cl)cc2[nH]1` [Compound 61, (3S,4R)-1-((4′-(6-chloro-2-(((3R,3aR,6R,6aR)-6-hydroxyhexahydrofuro[3,2-b]furan-3-yl)oxy)-1H-benzo[d]imidazol-5-yl)-[1,1′-biphenyl]-4-yl)methyl)pyrrolidine-3,4-diol], the concentration giving a half-maximal response (EC50) was 1.36 nM.

As to `CN(CCOCCO)Cc1ccc(-c2ccc(-c3cc4nc(O[C@@H]5CO[C@H]6[C@@H]5OC[C@H]6O)[nH]c4cc3Cl)cc2)cc1` [Compound 62, (3R,3aR,6R,6aR)-6-((6-chloro-5-(4′-(((2-(2-hydroxyethoxy)ethyl)(methyl)amino)methyl)-[1,1′-biphenyl]-4-yl)-1H-benzoldlimidazol-2-yl)oxy)hexahydrofuro[3,2-b]furan-3-ol], the EC50 was found to be 1.3 nM. The same measure for `OCC1CN(Cc2ccc(-c3ccc(-c4cc5nc(O[C@@H]6CO[C@H]7[C@@H]6OC[C@H]7O)[nH]c5cc4Cl)cc3)cc2)C1` [Compound 63, (3R,3aR,6R,6aR)-6-((6-chloro-5-(4′((3-(hydroxymethyl)azetidin-1-yl)methyl)-[1,1′-biphenyl]-4-yl)-1H-benzo[d]imidazol-2-yl)oxy)hexahydrofuro[3,2-b]furan-3-ol]: 1.09 nM. Regarding `O[C@@H]1CO[C@H]2[C@@H]1OC[C@H]2Oc1nc2cc(-c3ccc(-c4ccc(CN5C[C@H](O)[C@@H](O)C5)cc4)cc3)c(Cl)cc2[nH]1` [Compound 64], the 50% effective concentration (EC50) worked out at 1.4 nM. The same measure for `OC[C@@H](O)[C@@H](O)[C@H](O)[C@@H](O)CNCc1ccc(-c2ccc(-c3cc4nc(O[C@@H]5CO[C@H]6[C@@H]5OC[C@H]6O)[nH]c4cc3Cl)cc2)cc1` [Compound 65, (2R,3R,4R,5S)-6-(((4′-(6-chloro-2-(((3R,3aR,6R,6aR)-6-hydroxyhexahydrofuro[3,2-b]furan-3-yl)oxy)-1H-benzo [d]imidazol-5-yl)-[1,1′-biphenyl]-4-yl)methyl)amino)hexane-1,2,3,4,5-pentaol]: 0.77 nM. With `OCC1(CO)CN(Cc2ccc(-c3ccc(-c4cc5nc(O[C@@H]6CO[C@H]7[C@@H]6OC[C@H]7O)[nH]c5cc4Cl)cc3)cc2)C1` [Compound 66, (1-((4′-(6-chloro-2-(((3R,3aR,6R,6aR)-6-hydroxyhexahydrofuro[3,2-b]furan-3-yl)oxy)-1H-benzo[d]imidazol-5-yl)-[1,1′-biphenyl]-4-yl)methyl)azetidine-3,3-diyl)dimethanol] the figure was 0.8 nM. As for `NCC1CN(Cc2ccc(-c3ccc(-c4cc5nc(O[C@@H]6CO[C@H]7[C@@H]6OC[C@H]7O)[nH]c5cc4Cl)cc3)cc2)C1` [Compound 67, (3R,3aR,6R,6aR)-6-((5-(4′-((3-(aminomethyl)azetidin-1-yl)methyl)-[1,1′-biphenyl]-4-yl)-6-chloro-1H-benzo[d]imidazol-2-yl)oxy)hexahydrofuro[3,2-b]furan-3-ol], the EC50 was 0.93 nM. Consider `O=P(O)(O)c1ccc(-c2ccc(-c3nc4nc(O[C@@H]5CO[C@@H](CO)[C@@H]5O)[nH]c4cc3Cl)cc2)cc1` [Compound 68, (4′-(6-chloro-2-(((3R,4S,5S)-4-hydroxy-5-(hydroxymethyl)tetrahydrofuran-3-yl)oxy)-1H-imidazo[4,5-b]pyridin-5-yl)-[1,1′-biphenyl]-4-yl)phosphonic acid], for which the concentration for a half-maximal effect (EC50) is above 10000 nM. With `O=S(=O)(O)c1ccc(-c2ccc(-c3nc4nc(O[C@@H]5CO[C@H]6[C@@H]5OC[C@H]6O)[nH]c4cc3Cl)cc2)cc1` [Compound 69, 4′-(6-chloro-2-(((3R,3aR,6R,6aR)-6-hydroxyhexahydrofuro[3,2-b]furan-3-yl)oxy)-1H-imidazo[4,5-b]pyridin-5-yl)-[1,1′-biphenyl]-4-sulfonic acid] the figure was 1.84 nM.
